US20260263550A1, “METHODS AND COMPOSITIONS FOR TREATING, PREVENTING, INHIBITING, AMELIORATING OR DELAYING THE ONSET OF OPHTHALMIC CONDITIONS” (Stealth BioTherapeutics Inc., priority 2021, published 2026)

Assay: in vivo
Conditions: cynomolgus monkey, sc; for concentration at 29 study day: Average Conc.
Experimental: Male and female cynomolgus monkeys were divided into four groups (Groups 1 to 4). Groups 1 and 4 consisted of five males and five females each and Groups 2 and 3 consisted of three males and three females each. Animals were dosed via SC injection once daily for 28 consecutive days. Group 1 animals received the control article, 0.9% sodium chloride injection, USP (saline). Group 2, 3, and 4 animals received the test article, compound of Formula IIa, at dose levels of 2, 5, and 15 mg/kg/day, respectively. Three males and three females from Groups 1 to 3, and three males and one female from Group 4 were necropsied on Day 29 (terminal necropsy). Two males and two females from Groups 1 and 4 were necropsied on Day 42 (recovery necropsy), after a 13-day treatment-free period. […] Safety endpoints included daily clinical and weekly detailed observations, food evaluation, dermal scoring of the injection site, body weight, ophthalmology, electrocardiography (ECG), hematology, coagulation, serum chemistry, and urinalysis. Blood was collected at multiple time points. At termination, gross observations and organ weights were recorded, and eye/optic nerve tissue samples were collected for microscopic evaluation and biodistribution assays.
Preparation of dose formulations. Dose formulation preparations were performed once weekly in a biosafety cabinet using clean techniques. The test article dosing formulations were prepared by diluting the 100 mg/mL (nominal concentration) compound of Formula IIa stock solution in the appropriate volume of 0.9% Sodium Chloride Injection, USP. All formulations (including Group 1, control) were filtered using a 0.22 μm polyethersulfone (PES) syringe filter. Osmolarity and pH were measured and recorded, then the dosing formulations were aliquoted into a sufficient number of sterile glass vials for daily use over one week. All aliquots were stored in a refrigerator set to maintain 4° C. and used within 7 days after preparation.
Test system. The test system was cynomolgus monkey, originating from Cambodia, supplied by Worldwide Primates. The animals were identified by unique skin tattoos. The body weight of the animals ranged from 1.6. to 2.4 kg at initiation of dosing and the ages ranged from 2.0 to 3.1 years at the initiation of dosing. For acclimation, there were 18 males and 18 females. For dosing, 16 males and 16 females were used.
Administration of dose formulations. The dose formulations were administered to appropriate animals by subcutaneous injection into the interscapular area once daily for 28 days using disposable syringe and needle. Four subcutaneous dose sites (upper left/right and lower left/right) were designated on the dorsal back using permanent marker or tattoo placed during acclimation avoiding the spine, with no edges overlapping and with a maximum practical distance between the dose sites. The designated dosing sites were shaved, and injection was rotated among them. If a designated site was not suitable for administration (e.g., due to wound, scab/crust, etc.), the next suitable site was used for dosing and appropriately documented.
Necropsy. Animals were fasted overnight prior to termination. Following blood collection on the day of necropsy, animals were sedated, weighed, and euthanized by an overdose of euthanasia solution, followed by whole body perfusion flush with phosphate buffered saline. Animals were subjected to a complete macroscopic examination and tissue collection. Bone marrow smears were prepared from the sternum at scheduled necropsy. Two females were necropsied early on Days 25 and 27. Blood samples (hematology, coagulation, and serum chemistry) were collected prior to euthanasia, after which a complete macroscopic examination was performed.
Tissue collection and preservation. Left eyes and optic nerves were fixed in a solution of 2.5% NBF and 3% Glutaraldehyde, and right eyes and optic nerves were frozen for biodistribution.
Biodistribution analysis—right eye and optic nerve. […]

[1] = male, 15 mg/kg/day, Average Concentration, Aqueous Humor
[2] = male, 15 mg/kg/day, Average Concentration, Choroid
[3] = male, 15 mg/kg/day, Average Concentration, Conjunctiva
[4] = male, 15 mg/kg/day, Average Concentration, Cornea
[5] = male, 15 mg/kg/day, Average Concentration, ICB (iris/ciliary body)
[6] = male, 15 mg/kg/day, Average Concentration, Optic Nerve
[7] = male, 15 mg/kg/day, Average Concentration, Retina
[8] = male, 15 mg/kg/day, Average Concentration, Sclera
[9] = male, 15 mg/kg/day, Average Concentration, Vitreous Humor

Cc1cc(O)cc(C)c1C[C@H](NC(=O)[C@H](N)CCCNC(=N)N)C(=O)N[C@@H](CCCCN)c1nc(Cc2ccccc2)no1.Cl.Cl.Cl [Formula IIa, (R)-2-amino-N—((S)-1-(((S)-5-amino-1-(3-benzyl-1,2,4-oxadiazol-5-yl)pentyl)amino)-3-(4-hydroxy-2,6-dimethylphenyl)-1-oxopropan-2-yl)-5-guanidinopentanamide]
Average Concentration (2 mg/kg): <LLOQ
Conc. (2 mg/kg): <LLOQ
Concentration (2 mg/kg): <LLOQ
Average Concentration (5 mg/kg): <LLOQ
Conc. (5 mg/kg): <LLOQ
Concentration (5 mg/kg): <LLOQ
Average Concentration (15 mg/kg): <LLOQ
Conc. (15 mg/kg): <LLOQ
Concentration (15 mg/kg): <LLOQ
concentration at 29 study day (female, 2 mg/kg): 17500 ng/g
concentration at 29 day (female, 2 mg/kg/day, Average Concentration, Aqueous Humor): 2.76 ng/mL
concentration at 29 day (female, 2 mg/kg/day, Average Concentration, Choroid): 2500 ng/g
concentration at 29 day (female, 2 mg/kg/day, Average Concentration, Conjunctiva): 835 ng/g
concentration at 29 day (female, 2 mg/kg/day, Average Concentration, Cornea): 27.2 ng/g
concentration at 29 day (female, 2 mg/kg/day, Average Concentration, ICB (iris/ciliary body)): 375 ng/g
concentration at 29 day (female, 2 mg/kg/day, Average Concentration, Optic Nerve): 17500 ng/g
concentration at 29 day (female, 2 mg/kg/day, Average Concentration, Retina): 7390 ng/g
concentration at 29 day (female, 2 mg/kg/day, Average Concentration, Sclera): 446 ng/g
concentration at 29 day (female, 2 mg/kg/day, Average Concentration, Vitreous Humor): 13.1 ng/mL
concentration at 29 day (female, 2 mg/kg/day, Concentration (ng/g), Cornea (individual animals)): 53.4 ng/g
concentration at 29 day (female, 2 mg/kg/day, Concentration (ng/mL), Cornea (individual animals)): 2.67 ng/mL
concentration at 29 study day (female, 5 mg/kg): 31800 ng/g
concentration at 29 day (female, 5 mg/kg/day, Average Concentration, Aqueous Humor): 25.9 ng/mL
concentration at 29 day (female, 5 mg/kg/day, Average Concentration, Choroid): 3210 ng/g
concentration at 29 day (female, 5 mg/kg/day, Average Concentration, Conjunctiva): 1770 ng/g
concentration at 29 day (female, 5 mg/kg/day, Average Concentration, Cornea): 56.1 ng/g
concentration at 29 day (female, 5 mg/kg/day, Average Concentration, ICB (iris/ciliary body)): 800 ng/g
concentration at 29 day (female, 5 mg/kg/day, Average Concentration, Optic Nerve): 31800 ng/g
concentration at 29 day (female, 5 mg/kg/day, Average Concentration, Retina): 20100 ng/g
concentration at 29 day (female, 5 mg/kg/day, Average Concentration, Sclera): 837 ng/g
concentration at 29 day (female, 5 mg/kg/day, Average Concentration, Vitreous Humor): 23.3 ng/mL
concentration at 42 day (female, 15 mg/kg/day, Average Concentration, Aqueous Humor): 9.83 ng/mL
concentration at 42 day (female, 15 mg/kg/day, Average Concentration, Choroid): 27600 ng/g
concentration at 42 day (female, 15 mg/kg/day, Average Concentration, Conjunctiva): 4540 ng/g
concentration at 42 day (female, 15 mg/kg/day, Average Concentration, Cornea): 149 ng/g
concentration at 42 day (female, 15 mg/kg/day, Average Concentration, ICB (iris/ciliary body)): 3160 ng/g
concentration at 42 day (female, 15 mg/kg/day, Average Concentration, Optic Nerve): 40800 ng/g
concentration at 42 day (female, 15 mg/kg/day, Average Concentration, Retina): 67000 ng/g
concentration at 42 day (female, 15 mg/kg/day, Average Concentration, Sclera): 4700 ng/g
concentration at 42 day (female, 15 mg/kg/day, Average Concentration, Vitreous Humor): 62.7 ng/mL
concentration at 42 day (female, 15 mg/kg/day, Concentration (ng/g), Sclera (individual animals)): 5140 ng/g
concentration at 29 study day (male, 2 mg/kg): 22000 ng/g
Concentration, Aqueous Humor (individual animals) (male, 2 mg/kg/day, 29 day): 2.94 ng/mL
concentration at 29 day (male, 2 mg/kg/day, Average Concentration, Aqueous Humor): 2.31 ng/mL
concentration at 29 day (male, 2 mg/kg/day, Average Concentration, Choroid): 1890 ng/g
concentration at 29 day (male, 2 mg/kg/day, Average Concentration, Conjunctiva): 603 ng/g
concentration at 29 day (male, 2 mg/kg/day, Average Concentration, Cornea): 39.3 ng/g
concentration at 29 day (male, 2 mg/kg/day, Average Concentration, ICB (iris/ciliary body)): 354 ng/g
concentration at 29 day (male, 2 mg/kg/day, Average Concentration, Optic Nerve): 22000 ng/g
concentration at 29 day (male, 2 mg/kg/day, Average Concentration, Retina): 2770 ng/g
concentration at 29 day (male, 2 mg/kg/day, Average Concentration, Sclera): 701 ng/g
concentration at 29 day (male, 2 mg/kg/day, Average Concentration, Vitreous Humor): 11.2 ng/mL
concentration at 29 day (male, 2 mg/kg/day, Concentration, Aqueous Humor (individual animals)): 4 ng/mL
concentration at 29 study day (male, 5 mg/kg): 26300 ng/g
concentration at 29 day (male, 5 mg/kg/day, Average Concentration, Aqueous Humor): 5.29 ng/mL
concentration at 29 day (male, 5 mg/kg/day, Average Concentration, Choroid): 4060 ng/g
concentration at 29 day (male, 5 mg/kg/day, Average Concentration, Conjunctiva): 3560 ng/g
concentration at 29 day (male, 5 mg/kg/day, Average Concentration, Cornea): 64 ng/g
concentration at 29 day (male, 5 mg/kg/day, Average Concentration, ICB (iris/ciliary body)): 1230 ng/g
concentration at 29 day (male, 5 mg/kg/day, Average Concentration, Optic Nerve): 26300 ng/g
concentration at 29 day (male, 5 mg/kg/day, Average Concentration, Retina): 5760 ng/g
concentration at 29 day (male, 5 mg/kg/day, Average Concentration, Sclera): 1820 ng/g
concentration at 29 day (male, 5 mg/kg/day, Average Concentration, Vitreous Humor): 13.3 ng/mL
concentration at 29 day [1]: 14.5 ng/mL
concentration at 42 day [1]: 3.82 ng/mL
concentration at 29 day [2]: 8790 ng/g
concentration at 42 day [2]: 7880 ng/g
concentration at 29 day [3]: 5430 ng/g
concentration at 42 day [3]: 4380 ng/g
concentration at 29 day [4]: 195 ng/g
concentration at 42 day [4]: 34.8 ng/g
concentration at 29 day [5]: 3910 ng/g
concentration at 42 day [5]: 1410 ng/g
concentration at 29 day [6]: 60000 ng/g
concentration at 42 day [6]: 91500 ng/g
concentration at 29 day [7]: 26100 ng/g
concentration at 42 day [7]: 30200 ng/g
concentration at 29 day [8]: 2260 ng/g
concentration at 42 day [8]: 3870 ng/g
concentration at 29 day [9]: 48.8 ng/mL
concentration at 42 day [9]: 45.3 ng/mL
concentration at 42 day (male, 15 mg/kg/day, Concentration (ng/g), Cornea (individual animals)): 34.6 ng/g
concentration at 42 day (male, 15 mg/kg/day, Concentration (ng/mL), Cornea (individual animals)): 1.73 ng/mL
